Source: the supplement of paper PMC13207355

Experiments:
Conditions in all cases: exposure time: 72 h
E21 [1] = patient-derived glioblastoma stem cells of mesenchymal subtype; experiment: surviving fraction (nuclei count normalised to DMSO); higher = more cells surviving (less toxic)
E34 [2] = patient-derived glioblastoma stem cells of proneural subtype; experiment: as above
E28 [3] = patient-derived glioblastoma stem cells of classical subtype; experiment: as above
E57 [4] = patient-derived glioblastoma stem cells of mesenchymal subtype; experiment: as above
E31 [5] = patient-derived glioblastoma stem cells of proneural subtype; experiment: as above
E13 [6] = patient-derived glioblastoma stem cells of classical subtype; experiment: as above
FT3469 [7] = normal neural stem cell line; experiment: as above
E21 [8] = experiment: phenotypic distance (Euclidean, principal components) from DMSO controls (arbitrary units); higher = stronger morphological change
E34 [9] = experiment: as above
E28 [10] = experiment: as above
E57 [11] = experiment: as above
E31 [12] = experiment: as above
E13 [13] = experiment: as above
FT3469 [14] = experiment: as above
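For phenotypic distance (Euclidean, principal components) from DMSO controls in this document: cell Painting imaging in 384-well plates, CellProfiler features reduced to at least 20 principal components, Euclidean distance versus same-plate DMSO vehicle wells (0.1% v/v), median over six images per well.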
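For surviving fraction (nuclei count normalised to DMSO) in this document: nuclei counted by high-content imaging of Hoechst-stained cells in laminin-coated 384-well plates, relative to 0.1% DMSO vehicle wells, with staurosporine as cell-death control.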

COc1ccc2c(c1)CC[C@@H]1[C@@H]2CC[C@]2(C)[C@@H](NCCCCCCN3C(=O)CCC3=O)CC[C@@H]12
Conditions	phenotypic distance	surviving fraction
E13 [6], 4.1 nM	–	0.826
E13 [6], 12.3 nM	–	0.95
E13 [6], 37 nM	–	0.876
E13 [6], 111.1 nM	–	0.929
E13 [6], 333.3 nM	–	0.981
E13 [6], 1000 nM	–	0.804
E13 [6], 3000 nM	–	0.52
E13 [13], 4.1 nM	1.07	–
E13 [13], 12.3 nM	0.714	–
E13 [13], 37 nM	0.93	–
E13 [13], 111.1 nM	1.11	–
E13 [13], 333.3 nM	1.31	–
E13 [13], 1000 nM	2.29	–
E13 [13], 3000 nM	3.72	–
E21 [1], 4.1 nM	–	1.03
E21 [1], 12.3 nM	–	0.961
E21 [1], 37 nM	–	0.951
E21 [1], 111.1 nM	–	1.13
E21 [1], 333.3 nM	–	1.06
E21 [1], 1000 nM	–	0.867
E21 [1], 3000 nM	–	0.645
E21 [8], 4.1 nM	0.642	–
E21 [8], 12.3 nM	0.74	–
E21 [8], 37 nM	0.741	–
E21 [8], 111.1 nM	0.893	–
E21 [8], 333.3 nM	0.934	–
E21 [8], 1000 nM	1.42	–
E21 [8], 3000 nM	4.65	–
E28 [3], 4.1 nM	–	1.09
E28 [3], 12.3 nM	–	1.03
E28 [3], 37 nM	–	1.03
E28 [3], 111.1 nM	–	1.09
E28 [3], 333.3 nM	–	1.1
E28 [3], 1000 nM	–	1.01
E28 [3], 3000 nM	–	0.973
E28 [10], 4.1 nM	0.61	–
E28 [10], 12.3 nM	0.49	–
E28 [10], 37 nM	0.46	–
E28 [10], 111.1 nM	0.724	–
E28 [10], 333.3 nM	0.645	–
E28 [10], 1000 nM	0.805	–
E28 [10], 3000 nM	2.44	–
E31 [5], 4.1 nM	–	0.965
E31 [5], 12.3 nM	–	1.14
E31 [5], 37 nM	–	0.985
E31 [5], 111.1 nM	–	1.05
E31 [5], 333.3 nM	–	1.06
E31 [5], 1000 nM	–	0.962
E31 [5], 3000 nM	–	0.624
E31 [12], 4.1 nM	0.697	–
E31 [12], 12.3 nM	0.31	–
E31 [12], 37 nM	0.566	–
E31 [12], 111.1 nM	0.735	–
E31 [12], 333.3 nM	1.61	–
E31 [12], 1000 nM	2.54	–
E31 [12], 3000 nM	6.23	–
E34 [2], 4.1 nM	–	0.876
E34 [2], 12.3 nM	–	0.901
E34 [2], 37 nM	–	1.13
E34 [2], 111.1 nM	–	0.957
E34 [2], 333.3 nM	–	0.939
E34 [2], 1000 nM	–	0.979
E34 [2], 3000 nM	–	0.986
E34 [9], 4.1 nM	1.13	–
E34 [9], 12.3 nM	0.657	–
E34 [9], 37 nM	0.637	–
E34 [9], 111.1 nM	0.671	–
E34 [9], 333.3 nM	0.968	–
E34 [9], 1000 nM	1.06	–
E34 [9], 3000 nM	0.95	–
E57 [4], 4.1 nM	–	1.11
E57 [4], 12.3 nM	–	1.04
E57 [4], 37 nM	–	1.13
E57 [4], 111.1 nM	–	1.13
E57 [4], 333.3 nM	–	1.17
E57 [4], 1000 nM	–	1.11
E57 [4], 3000 nM	–	0.936
E57 [11], 4.1 nM	3.52	–
E57 [11], 12.3 nM	0.302	–
E57 [11], 37 nM	0.424	–
E57 [11], 111.1 nM	0.621	–
E57 [11], 333.3 nM	1.22	–
E57 [11], 1000 nM	1.78	–
E57 [11], 3000 nM	2.68	–
FT3469 [7], 4.1 nM	–	0.984
FT3469 [7], 12.3 nM	–	1.11
FT3469 [7], 37 nM	–	1.03
FT3469 [7], 111.1 nM	–	1.11
FT3469 [7], 333.3 nM	–	1.06
FT3469 [7], 1000 nM	–	0.922
FT3469 [7], 3000 nM	–	0.983
FT3469 [14], 4.1 nM	0.686	–
FT3469 [14], 12.3 nM	0.245	–
FT3469 [14], 37 nM	0.58	–
FT3469 [14], 111.1 nM	0.496	–
FT3469 [14], 333.3 nM	0.408	–
FT3469 [14], 1000 nM	0.646	–
FT3469 [14], 3000 nM	0.711	–
